4 compounds from EPA's ToxRefDB 2 can be followed below.

Series [1] has as its system rabbit. To be noted: Prenatal developmental toxicity study, new zealand white, Oral, Gavage/Intubation, dose end: 19 GD.
For series [2], the system named is rabbit. To be noted: Prenatal developmental toxicity study, new zealand white, Oral, Gavage/Intubation, dose end: 19 GD. The source holds these as a separate data set.
For series [3], the system named is rat. As to conditions: Combined chronic toxicity/carcinogenicity, sprague dawley, Oral, Feed, dose end: 2 year, group: systemic.
In series [4] the test system is rat. To be noted: Multigenerational reproductive toxicity study, sprague dawley, Oral, [Not Specified], dose end: 2 generation.
Series [5] deals with mouse. As to conditions: Combined chronic toxicity/carcinogenicity, b6c3f1, Oral, Feed, dose end: 2 year, group: systemic.
The test system of series [6] is rat. To be noted: Combined chronic toxicity/carcinogenicity, sprague dawley, Oral, Feed, dose end: 2 year, group: systemic. The source holds these as a separate data set.
In series [7] the test system is rat. To be noted: Subchronic oral toxicity in rodents, other, Feed, dose end: 13 week, group: systemic.
In the next series the test system is dog. To be noted: Combined chronic toxicity/carcinogenicity, beagle, Oral, Feed, dose end: 24 month, group: systemic.
The subject of series [8] is rat. To be noted: Multigenerational reproductive toxicity study, Sprague Dawley, Oral, Feed, dose end: 2 generation.
In series [9] the test system is rat. To be noted: Prenatal developmental toxicity study, other, Oral, Gavage/Intubation, dose end: 15 GD.
Series [10] has as its system rat. To be noted: Subchronic oral toxicity in rodents, sprague dawley, Feed, dose end: 13 week, group: systemic.
Series [11] relates to rat. As to conditions: Subchronic oral toxicity in rodents, wistar, Feed, dose end: 6 week, group: systemic.
Series [12] deals with mouse. To be noted: Carcinogenicity, cd1, Oral, [Not Specified], dose end: 99 week, group: systemic.
Series [13] has as its system rat. As to conditions: Combined chronic toxicity/carcinogenicity, sprague dawley, Oral, Feed, dose end: 25 month, group: systemic.
Series [14] relates to rat. As to conditions: Subchronic oral toxicity in rodents, wistar, Feed, dose end: 13 week, group: systemic.
For series [15], the system named is rat. As to conditions: Combined chronic toxicity/carcinogenicity, wistar, Oral, Feed, dose end: 104 week, group: systemic.
The test system of series [16] is mouse. As to conditions: Subchronic oral toxicity in rodents, other, Feed, dose end: 13 week, group: systemic.
Setting [17] is: group: developmental, developmental / developmental malformation / brain / dilated cerebral ventricle + developmental / developmental malformation / brain / ….
[18] abbreviates: group: maternal, systemic / in life observation / body weight / body weight + systemic / in life observation / body weight / body weight gain + reproductive….
[19] abbreviates: group: developmental, developmental / developmental malformation / brain / hydrocephaly.
Setting [20] is: group: maternal, reproductive / reproductive performance / postimplantation loss / postimplantation loss.
The mark [21] stands for this setting: group: maternal, reproductive / reproductive performance / postimplantation loss / postimplantation loss + reproductive / reproductive performance / aborted….
Where [22] appears, read: systemic / pathology microscopic / liver / hyperplasia.
[23] abbreviates: systemic / pathology microscopic / liver / hyperplasia + systemic / in life observation / body weight / body weight + systemic / pathology ….
Where [24] appears, read: group: offspring, developmental / offspring survival late / viability index / viability index + systemic / in life observation / body weight / offspring (pup….
[25] abbreviates: group: parental, systemic / in life observation / body weight / body weight + systemic / in life observation / body weight / body weight gain + systemic / ….
Setting [26] is: systemic / in life observation / mortality / mortality + systemic / in life observation / body weight / body weight.
Where [27] appears, read: systemic / hematology / erythrocyte (rbc) count differential / erythrocyte (rbc) + systemic / hematology / hematocrit (hct) / hematocrit (….
The mark [28] stands for this setting: systemic / in life observation / body weight / body weight gain.
Where [29] appears, read: systemic / pathology microscopic / kidney / cellular alteration + systemic / pathology microscopic / kidney / pigmentation.
Where [30] appears, read: systemic / pathology microscopic / kidney / cellular alteration + systemic / pathology microscopic / kidney / pigmentation + systemic / ….
[31] abbreviates: group: offspring, systemic / in life observation / body weight / offspring (pup) weight + developmental / offspring survival late / [other] / [other] + ….
[32] abbreviates: group: parental, systemic / in life observation / body weight / body weight + systemic / organ weight / adrenal gland / absolute.
The mark [33] stands for this setting: group: developmental, developmental / developmental malformation / eye / anophthalmia + developmental / developmental malformation / eye / microphthalmia.
The mark [34] stands for this setting: group: maternal, systemic / in life observation / body weight / body weight gain.
The mark [35] stands for this setting: systemic / clinical chemistry / albumin / albumin + systemic / clinical chemistry / protein / protein.
The mark [36] stands for this setting: systemic / clinical chemistry / cholesterol / cholesterol + systemic / in life observation / body weight / body weight + systemic / in life ….
Where [37] appears, read: systemic / in life observation / body weight / body weight gain + systemic / clinical chemistry / protein / protein + systemic / clinical ….
[38] abbreviates: systemic / in life observation / body weight / body weight gain + systemic / in life observation / mortality / mortality + systemic / organ ….
[39] abbreviates: systemic / clinical chemistry / alanine aminotransferase (alt/sgpt) / alanine aminotransferase (alt/sgpt) + systemic / clinical chemistry / ….
The mark [40] stands for this setting: systemic / pathology microscopic / liver / hypertrophy.
Where [41] appears, read: systemic / in life observation / body weight / body weight gain + systemic / clinical chemistry / cholesterol / cholesterol.
Where [42] appears, read: systemic / clinical chemistry / urea nitrogen / urea nitrogen.
Setting [43] is: systemic / clinical chemistry / urea nitrogen / urea nitrogen + systemic / clinical chemistry / alanine aminotransferase (alt/sgpt) / ….

Each structure is given as a SMILES string.

Regarding `C1CC[CH]([Sn+]([CH]2CCCCC2)[CH]2CCCCC2)CC1.[OH-]` [Cyhexatin], the LEL is 0.75 mg/kg/day in the series with rabbit [1] (setting [17]); 3 mg/kg/day in the series with rabbit [1] (setting [18]); 3 mg/kg/day with rabbit [2] (setting [19]); 1 mg/kg/day in the series on rabbit [2] (setting [20]); 1 mg/kg/day in the series on rat [3] (setting [23]); 6 mg/kg/day in the series on rat [4] (setting [24]). Further, the LEL worked out at 0.5 mg/kg/day in the series with rat [4] (group: parental, systemic / in life observation / body weight / body weight + systemic / in life observation / body weight / body weight gain) and 6 mg/kg/day in the series with mouse [5] (setting [26]). Also, the LOAEL with rabbit [1] (setting [17]) was more than 3 mg/kg/day; in the series with rabbit [1] (group: maternal, systemic / in life observation / body weight / body weight + systemic / in life observation / body weight / body weight gain), 3 mg/kg/day; in the series on rabbit [2] (setting [19]), more than 3 mg/kg/day; in the series with rabbit [2] (setting [20]) it was 1 mg/kg/day; with rat [3] (setting [22]) it was 1 mg/kg/day; with rat [4] (setting [24]), more than 6 mg/kg/day. Further, the LOAEL is more than 6 mg/kg/day in the series with rat [4] (setting [25]) and 6 mg/kg/day in the series on mouse [5] (systemic / in life observation / mortality / mortality). The NEL is less than 0.75 mg/kg/day in the series with rabbit [1] (setting [17]); 0.75 mg/kg/day in the series on rabbit [1] (setting [18]); 1 mg/kg/day in the series with rabbit [2] (setting [19]); 0.5 mg/kg/day in the series with rabbit [2] (setting [21]); less than 1 mg/kg/day in the series with rat [3] (setting [23]); 0.5 mg/kg/day with rat [4] (setting [24]). The NEL was 0.1 mg/kg/day with rat [4] (setting [25]) and 3 mg/kg/day in the series with mouse [5] (setting [26]). For the same compound, the NOAEL in the series with rabbit [1] (setting [17]) is not below 3 mg/kg/day; in the series on rabbit [1] (setting [18]), 0.75 mg/kg/day; in the series on rabbit [2] (setting [19]) it was not below 3 mg/kg/day; in the series on rabbit [2] (setting [21]), 0.5 mg/kg/day; in the series on rat [3] (setting [22]), less than 1 mg/kg/day; with rat [4] (setting [24]), not below 6 mg/kg/day. Also, the NOAEL is not below 6 mg/kg/day with rat [4] (setting [25]) and 3 mg/kg/day with mouse [5] (setting [26]).

With `CNC(=O)ON=C(C)SC` [Methomyl], the NEL is 5 mg/kg/day with rat [6] (setting [27]); 2.5 mg/kg/day in the series with rat [7] (setting [28]); 2.5 mg/kg/day with dog (setting [30]); less than 6.9 mg/kg/day in the series with rat [8] (setting [31]); less than 6.9 mg/kg/day with rat [8] (setting [32]). For the same compound, the LOAEL with rat [6] (setting [28]) was found to be 20 mg/kg/day; in the series with rat [7] (systemic / in life observation / body weight / body weight gain + systemic / pathology microscopic / bone marrow / hyperplasia) it was 12.5 mg/kg/day; with dog (setting [29]), 10 mg/kg/day; in the series on rat [8] (group: offspring, systemic / in life observation / body weight / offspring (pup) weight + developmental / offspring survival late / [other] / [other]) it was 56.5 mg/kg/day; with rat [8] (group: parental, systemic / in life observation / body weight / body weight + systemic / in life observation / food consumption / food consumption), 36.9 mg/kg/day. The NOAEL with rat [6] (setting [28]) stood at 5 mg/kg/day; in the series on rat [7] (setting [28]) it was 2.5 mg/kg/day; with dog (setting [30]), 2.5 mg/kg/day; in the series with rat [8] (group: offspring, systemic / in life observation / body weight / offspring (pup) weight + developmental / offspring survival late / lactation index / …), 6.9 mg/kg/day; in the series on rat [8] (group: parental, systemic / in life observation / body weight / body weight + systemic / in life observation / food consumption / food consumption + systemic…), 4.6 mg/kg/day. For the same compound, the LEL was 20 mg/kg/day in the series with rat [6] (systemic / in life observation / body weight / body weight gain + systemic / hematology / erythrocyte (rbc) count differential / erythrocyte…); 12.5 mg/kg/day with rat [7] (systemic / in life observation / body weight / body weight gain + systemic / pathology microscopic / bone marrow / hyperplasia + systemic / …); 10 mg/kg/day in the series with dog (setting [29]); 6.9 mg/kg/day in the series on rat [8] (setting [31]); 6.9 mg/kg/day in the series on rat [8] (setting [32]).

As to `CCCN(CCC)c1c([N+](=O)[O-])cc(C(F)(F)F)c(N)c1[N+](=O)[O-]` [Prodiamine], the LEL was determined as 100 mg/kg/day with rat [9] (setting [33]); 1000 mg/kg/day in the series with rat [9] (setting [34]); 26.7 mg/kg/day with rat [10] (setting [35]); 63 mg/kg/day in the series on rat [11] (systemic / clinical chemistry / protein / protein); 75 mg/kg/day in the series on mouse [12] (systemic / in life observation / body weight / body weight gain + systemic / organ weight / kidney / nos + systemic / in life observation / …); 1.8 mg/kg/day with rat [13] (setting [40]). Besides, the LOAEL in the series on rat [9] (setting [33]) worked out at 100 mg/kg/day; in the series with rat [9] (setting [34]), 1000 mg/kg/day; with rat [10] (setting [36]), 269 mg/kg/day; in the series with rat [11] (setting [28]), 681 mg/kg/day; with mouse [12] (setting [38]), 750 mg/kg/day; in the series with rat [13] (setting [39]), 37 mg/kg/day. Besides, the NEL was less than 100 mg/kg/day with rat [9] (setting [33]); 300 mg/kg/day in the series on rat [9] (setting [34]); less than 26.7 mg/kg/day in the series with rat [10] (setting [35]); 16.8 mg/kg/day in the series with rat [11] (setting [37]); 7.5 mg/kg/day with mouse [12] (setting [38]); less than 1.8 mg/kg/day in the series on rat [13] (setting [40]). Moreover, the no-observed-adverse-effect level (NOAEL) in the series on rat [9] (setting [33]) is less than 100 mg/kg/day; in the series on rat [9] (setting [34]) it was 300 mg/kg/day; in the series with rat [10] (setting [36]), 80.1 mg/kg/day; in the series on rat [11] (setting [37]) it was 63 mg/kg/day; in the series on mouse [12] (setting [38]), 75 mg/kg/day; in the series with rat [13] (setting [39]) it was 9.1 mg/kg/day.

On to `C[N+](C)(C)CCO.O=c1ccc([O-])n[nH]1`, for which the LOAEL turned out to be 4760 mg/kg/day with rat [14] (setting [28]), 1960 mg/kg/day in the series with rat [15] (systemic / in life observation / body weight / body weight + systemic / in life observation / body weight / body weight gain) and 5620 mg/kg/day in the series on mouse [16] (setting [42]). Also, the LEL with rat [14] (setting [41]) was determined as 4760 mg/kg/day; in the series with rat [15] (setting [27]), 18.1 mg/kg/day; in the series on mouse [16] (setting [42]) it was 5620 mg/kg/day. Besides, the results for the NEL in the series with rat [14] (setting [41]), with rat [15] (setting [27]) and in the series with mouse [16] (setting [43]) were 1060 mg/kg/day, less than 18.1 mg/kg/day and 1100 mg/kg/day, respectively. Further, the results for the no-observed-adverse-effect level (NOAEL) in the series with rat [14] (setting [41]), in the series on rat [15] (systemic / in life observation / body weight / body weight + systemic / in life observation / body weight / body weight gain + systemic / …) and with mouse [16] (setting [43]) were 1060 mg/kg/day, 183 mg/kg/day and 1100 mg/kg/day, respectively.

A word on the LOAEL: it is the lowest dose or exposure tested at which an adverse effect was seen. Usually NOAEL stands for the highest dose or exposure tested at which no adverse effect was seen.
